By Dmax is commonly meant the largest share of the target that was removed. What is called DC50 is the midpoint of the concentration-degradation curve.

Our source for the Dmax and DC50 values is patent US11427548B2 (Arvinas Operations, Inc., priority 2015, dated 2022).

The target in this experiment is T1, Androgen Receptor (Homo sapiens, UniProt P10275).
T1 construct: endogenous in cells; host or cells: VCaP cells
T1 sequence (P10275 1-920): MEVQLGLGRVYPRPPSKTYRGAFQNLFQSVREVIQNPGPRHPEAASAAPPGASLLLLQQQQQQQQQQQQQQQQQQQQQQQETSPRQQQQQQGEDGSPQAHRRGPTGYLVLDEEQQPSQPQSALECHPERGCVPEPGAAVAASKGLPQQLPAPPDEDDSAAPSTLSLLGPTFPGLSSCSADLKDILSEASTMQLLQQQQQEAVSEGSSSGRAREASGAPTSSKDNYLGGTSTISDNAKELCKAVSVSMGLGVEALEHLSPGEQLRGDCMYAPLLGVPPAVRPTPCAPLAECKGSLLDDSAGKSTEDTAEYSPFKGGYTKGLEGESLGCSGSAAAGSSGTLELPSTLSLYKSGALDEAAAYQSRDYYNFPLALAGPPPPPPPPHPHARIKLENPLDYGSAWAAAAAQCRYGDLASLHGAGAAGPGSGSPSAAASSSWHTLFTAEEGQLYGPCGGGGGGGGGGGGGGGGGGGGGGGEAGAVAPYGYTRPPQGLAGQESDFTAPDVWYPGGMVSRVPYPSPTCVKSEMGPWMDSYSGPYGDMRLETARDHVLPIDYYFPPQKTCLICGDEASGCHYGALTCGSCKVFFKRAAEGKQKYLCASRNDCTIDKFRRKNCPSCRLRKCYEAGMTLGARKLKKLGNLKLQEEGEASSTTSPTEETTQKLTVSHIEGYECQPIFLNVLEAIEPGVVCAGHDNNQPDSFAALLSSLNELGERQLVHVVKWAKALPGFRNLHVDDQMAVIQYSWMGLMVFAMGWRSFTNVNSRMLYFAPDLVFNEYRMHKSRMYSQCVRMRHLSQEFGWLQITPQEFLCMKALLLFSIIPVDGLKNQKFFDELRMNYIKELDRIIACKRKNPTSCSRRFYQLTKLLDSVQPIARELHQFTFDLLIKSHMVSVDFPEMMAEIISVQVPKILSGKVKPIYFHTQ
The experiment in a line: Androgen Receptor ELISA assay (PathScan AR ELISA) in VCaP cells: AR degradation, Dmax and DC50. The format is cell-based. To be noted: VCaP cells (Table 32); for Dmax: VCaP, highest percentage of Androgen Receptor degradation observed, read-out: VCaP Dmax (%); for DC50: concentration that caused 50% Androgen Receptor degradation, read-out: VCaP DC50. The method in brief:
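VCaP cells in phenol red-free RPMI with 5% charcoal-stripped FBS were grown at least 3 days, then given compound as 7 half-log doses in 0.1% DMSO with 0.1 nM R1881 for 24 h. Lysates went into a sandwich AR ELISA with TMB read at 450 nm.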
(ELISA stands for enzyme-linked immunosorbent assay.)

In the case of `Cc1ncoc1-c1ccc(CNC(=O)[C@@H]2C[C@@H](O)CN2C(=O)[C@@H](NC(=O)CCCOc2ccc(-c3ccc(C(=O)N[C@H]4C(C)(C)[C@H](Oc5ccc(C#N)c(Cl)c5)C4(C)C)cc3)cc2)C(C)(C)C)cc1` [Example 180], the Dmax was more than 71% and the half-maximal degradation concentration (DC50) is less than 0.05 µM.
On the same counts, the results for `Cc1ncoc1-c1ccc(CNC(=O)[C@@H]2C[C@@H](O)CN2C(=O)[C@@H](NC(=O)COCCOc2ccc(-c3ccc(C(=O)N[C@H]4C(C)(C)[C@H](Oc5ccc(C#N)c(Cl)c5)C4(C)C)cc3)cc2)C(C)(C)C)cc1` [Example 181] are more than 71% and less than 0.05 µM.
On the same counts, the results for `Cc1ncoc1-c1ccc(CNC(=O)[C@@H]2C[C@@H](O)CN2C(=O)[C@@H](NC(=O)COCc2ccc(Oc3ccc(C(=O)N[C@H]4C(C)(C)[C@H](Oc5ccc(C#N)c(Cl)c5)C4(C)C)cc3)cc2)C(C)(C)C)cc1` [Example 184, (2S,4R)-1-[(2S)-3,3-dimethyl-2-(2-{[4-(4-{[(1r,3r)-3-(3-chloro-4-cyanophenoxy)-2,2,4,4-tetramethylcyclobutyl]carbamoyl}phenoxy)phenyl]methoxy}acetamido)butanoyl]-4-hydroxy-N-{[4-(4-methyl-1,3-oxazol-5-yl)phenyl]methyl}pyrrolidine-2-carboxamide] are more than 71% and less than 0.05 µM.
On the same counts, the results for `Cc1ncsc1-c1ccc(CNC(=O)[C@@H]2C[C@@H](O)CN2C(=O)[C@@H](NC(=O)COCCOc2ccc(Oc3ccc(C(=O)N[C@H]4C(C)(C)[C@H](Oc5ccc(C#N)c(Cl)c5)C4(C)C)cc3)cc2)C(C)(C)C)cc1` [Example 185, (2S,4R)-1-[(2S)-3,3-dimethyl-2-(2-{2-[4-(4-{[trans-3-(3-chloro-4-cyanophenoxy)-2,2,4,4-tetramethylcyclobutyl]carbamoyl}phenoxy)phenoxy]ethoxy}acetamido)butanoyl]-4-hydroxy-N-{[4-(4-methyl-1,3-thiazol-5-yl)phenyl]methyl}pyrrolidine-2-carboxamide] are more than 71% and less than 0.05 µM.
As to `Cc1ncoc1-c1ccc(CNC(=O)[C@@H]2C[C@@H](O)CN2C(=O)[C@@H](NC(=O)COCCOc2ccc(Oc3ccc(C(=O)N[C@H]4C(C)(C)[C@H](Oc5ccc(C#N)c(Cl)c5)C4(C)C)cc3)cc2)C(C)(C)C)cc1` [Example 186, (2S,4R)-1-[(2S)-3,3-dimethyl-2-(2-{2-[4-(4-{[trans-3-(3-chloro-4-cyanophenoxy)-2,2,4,4-tetramethylcyclobutyl]carbamoyl}phenoxy)phenoxy]ethoxy}acetamido)butanoyl]-4-hydroxy-N-{[4-(4-methyl-1,3-oxazol-5-yl)phenyl]methyl}pyrrolidine-2-carboxamide], the Dmax was more than 71% and the half-maximal degradation concentration (DC50) was less than 0.05 µM.
On the same counts, the results for `Cc1ncsc1-c1ccc(CNC(=O)[C@@H]2C[C@@H](O)CN2C(=O)[C@@H](NC(=O)CNC(=O)c2ccc(Oc3ccc(C(=O)N[C@H]4C(C)(C)[C@H](Oc5ccc(C#N)c(Cl)c5)C4(C)C)cc3)cc2)C(C)(C)C)cc1` [Example 187, (2S,4R)-1-[(2S)-3,3-dimethyl-2-(2-{[4-(4-{[trans-3-(3-chloro-4-cyanophenoxy)-2,2,4,4-tetramethylcyclobutyl]carbamoyl}phenoxy)phenyl] formamido}acetamido)butanoyl]-4-hydroxy-N-{[4-(4-methyl-1,3-thiazol-5-yl)phenyl]methyl} pyrrolidine-2-carboxamide] are more than 71% and less than 0.05 µM.
On the same counts, the results for `Cc1ncsc1-c1ccc(CNC(=O)[C@@H]2C[C@@H](O)CN2C(=O)[C@@H](NC(=O)CNCCCCCOc2ccc(C(=O)N[C@H]3C(C)(C)[C@H](Oc4ccc(C#N)c(Cl)c4)C3(C)C)cc2)C(C)(C)C)cc1` [Example 188] are more than 71% and less than 0.05 µM.
